# Measurements: patent publication US10668123B2, “Capsicum compositions and uses thereof” (OmniActive Health Technologies Limited, priority 2015, dated 2020)
# Tested on: 3T3L1 cells
# Test: Lipolysis in 3T3L1 cells, glycerol release as biomarker
# Assay type: cell-based
# Conditions: positive control, time and concentration not given
# Protocol: Pancreatic lipase activity was measured using 4-methylumbelliferyl oleate (MU Oleate) as a substrate via a fluorescence kinetic assay. 3T3L1 cells were treated with capsicum composition (100 μg/1111) at different time points such as 1 hour (h), 2 h, 4 h and 24 h. […] was used as the positive control. Lipolysis was assessed using glycerol release as a biomarker.
# Capsicum composition enhanced the lipolysis after 24 h treatment. The ratio of released glycerol/protein content was 1.59, compared to the positive control:isoproterenol (ratio: 1.60).
structure (smiles),measurement,value
CC(C)NCC(O)c1ccc(O)c(O)c1 (stereo not shown) [Isoproterenol],Ratio treated/non treated (lipolysis),1.60
